As usually defined, the EC50 is the concentration at which the effect is half-maximal.

Data on four compounds can be found in ChEMBL document CHEMBL1128885, “Resolution and comparative anti-HIV evaluation of the enantiomers of calanolides A and B” (Bioorg Med Chem Lett, 1995).

In assay [1] the test system is Human immunodeficiency virus 1. The experiment in a line: Effective concentration required for in vitro inhibitory activity against HIV-1. Type of assay: functional, organism-based.
Assay [2] deals with Human immunodeficiency virus 1. The assay is described as follows: Effective concentration required for in vitro inhibitory activity against HIV-1; IA is Inactive. Type of assay: functional, organism-based.

Each structure is given as a SMILES string.

Take `CCCc1cc(=O)oc2c3c(c4c(c12)OC(C)(C)C=C4)O[C@H](C)[C@@H](C)[C@@H]3O` [CALANOLIDE A]: the EC50 in assay [1] turned out to be 200 nM. `CCCc1cc(=O)oc2c3c(c4c(c12)OC(C)(C)C=C4)O[C@@H](C)[C@H](C)[C@H]3O` [(-)-CALANOLIDE A]: the EC50 result in assay [2] is given as “Not Active”.

Consider `CCCc1cc(=O)oc2c3c(c4c(c12)OC(C)(C)C=C4)O[C@@H](C)[C@H](C)[C@@H]3O` [COSTATOLIDE], for which the EC50 in assay [1] worked out at 300 nM. In the case of `CCCc1cc(=O)oc2c3c(c4c(c12)OC(C)(C)C=C4)O[C@H](C)[C@@H](C)[C@H]3O` [(+)-CALANOLIDE B], in assay [2], the EC50 result is “Not Active”.
